Like-named read-outs stand apart in the source and are kept apart here.

What all share (type): cell-based
In assay [1] the target is T1, thromboxane A2 receptor (TPαR) (Homo sapiens, UniProt P21731).
T1 construct: host or cells: HEK293
T1 sequence (P21731 1-343): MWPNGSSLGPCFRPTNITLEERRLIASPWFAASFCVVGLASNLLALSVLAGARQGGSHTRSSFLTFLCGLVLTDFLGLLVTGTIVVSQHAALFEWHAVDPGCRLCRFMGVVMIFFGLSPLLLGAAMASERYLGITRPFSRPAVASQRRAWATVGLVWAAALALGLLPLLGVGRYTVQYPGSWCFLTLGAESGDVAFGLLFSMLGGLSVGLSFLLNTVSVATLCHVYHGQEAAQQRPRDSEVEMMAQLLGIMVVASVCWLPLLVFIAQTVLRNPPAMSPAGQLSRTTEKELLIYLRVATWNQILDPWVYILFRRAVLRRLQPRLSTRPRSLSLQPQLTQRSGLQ
The experiment in a line: βγIP-based BRET biosensor (GRK2-GFP/Rluc-Gγ5/Gβ1 plus indicated Gα), agonist activation of TPαR in HEK293 cells. As to conditions: read-out: potency of G-protein activation (dose-response curve). How it is done: Cell culture and transfections. Human embryonic kidney 293 (HEK293) cells were maintained in Dulbecco's Modified Eagle's Medium (DMEM) supplemented with 10% fetal bovine serum, 100 unit/ml penicillin/streptomycin at 37° C. in a humidified atmosphere with 5% CO2. […]
BRET assays in living cells. […] BRET values were then collected using a Mithras™ LB940 Multimode Microplate Reader or a TRISTAR® LB942 Multimode Microplate Reader, equipped with the following filters: 400 nm±70 nm (energy donor) and 515 nm±20 nm (energy acceptor). BRET values were determined by calculating the ratio of the light emitted by GFP (515 nm) over the light emitted by the Rluc (400 nm). To determine the % of activation (Stim as % of basal), BRET values obtained for the agonist treated cells where expressed as a percentage of the BRET values obtained with the corresponding cells treated with vehicle.
Kinetics experiments. BRET assays were performed as described previously, except that BRET readings were collected at regular intervals, 5 min after coelenterazine addition, while ligands and vehicle were injected to the cells after 30 sec of BRET measurements.
(In BRET a luciferase serves as donor, and the signal depends on an acceptor being close.)

For assay [2], the target named is T2, TPαR (Homo sapiens, UniProt P21731).
T2 construct: host or cells: HEK293
T2 sequence (P21731 1-343): T1 sequence (P21731 1-343)
The experiment in a line: Rluc protein complementation assay (GRK2-Rluc F1/Rluc F2-Gγ5/Gβ1/Gα11), TPαR in HEK293 cells. To be noted: Rluc-PCA, FIG. 9B, read-out: EC50 of G11 protein activation (luminescence). How it is done: Cell culture and transfections. Human embryonic kidney 293 (HEK293) cells were maintained in Dulbecco's Modified Eagle's Medium (DMEM) supplemented with 10% fetal bovine serum, 100 unit/ml penicillin/streptomycin at 37° C. in a humidified atmosphere with 5% CO2. Two days before the experiments, HEK293 cells were transfected with the indicated plasmids using poly-ethylenimine 25-kDa linear (PEI) as a transfecting agent (at a ratio of 3 to 1, PEI/DNA) (Hamdan, Rochdi et al. 2007), and then directly seeded in 96-well plates pre-treated with poly-L-ornithine hydrobromide or Poly-D-Lysine, at a density of 35,000 cells per well (for BRET and PCA assays in living cells), or 6-well plates at a density of 1,000,000 cells per well (for BRET assays on membrane preparations).
Protein complementation assays using RlucII fragments. Cells were washed twice with PBS, followed by Tyrode buffer addition. The cells were then pre-treated with the Rluc substrate, coelenterazine 400a, at a final concentration of 2.5 μM for 30 min at 37° C. The different ligands or vehicle were added for an additional 10 min. Luminescence values were then collected using a Mithras™ LB940 Multimode Microplate Reader, without any filters.

The target in assay [3] is T2, TPαR. The experiment in a line: Polycistronic vector biosensor (GRK2-GFP, Rluc-Gγ5, Gβ1) co-transfected with TPαR and Gα11. As to conditions: FIG. 11C. The text has this:
Expression vectors: Biosensor constructs. Rluc-Gγ5 and GFP-Gγ: Plasmid encoding the fusion proteins Rluc-Gy1 to Gγ13 and GFP1O-Gγ5 were was obtained by PCR amplification of the Gγ coding sequences which were then fused in frame at its N-terminus to the humanized Renilla luciferase II (hRlucII) sequence (a variant of the hRluc previously reported (Leduc, Breton et al. 2009), SEQ ID NO:39) into pcDNA3.1 vector (linker sequence: GSAGT, SEQ ID NO: 33), or to the GFP10 (a variant form of the green fluorescent protein (GFP) previously reported (Mercier, Salahpour et al. 2002, SEQ ID NO:38). GRK2-GFP and GRK3-GFP: GRK2-GFP, GRK3-GFP, GRK2 Cterm (SEQ ID NO:50)-GFP, GRK3 Cterm (SEQ ID NO:51)-GFP were generated by PCR amplification of GRK2 and GRK3, which were then fused at their C-terminus to the GFP10 into pcDNA3.1 Zeo(+) vector, generating a linker of 11 amino acid residues between the GRK and the GFP10 protein (linker sequence: GSAGTGKLPAT, SEQ ID NO: 34). GFP-GRK2 and GFP-GRK3: […], GFP-GRK2 Cterm (SEQ ID NO:50), GFP-GRK3 Cterm (SEQ ID NO:51) were generated by PCR amplification of GRK2 and GRK3, which were then fused at their N-terminus to the GFP10 (SEQ ID NO:38) into pcDNA3.1 Zeo (+) vector, generating a linker of 7 amino acid residues between the GRK and the GFP10 protein (linker sequence: GSAGTGG, SEQ ID NO:52). […]

As for `CCCCC[C@H](O)/C=C/[C@@H]1[C@@H](C/C=C\CCCC(=O)O)[C@H]2CO[C@@H]1C2` [U-46619], the EC50 in assay [1] (G-protein printed as Gβ, FIG. 3C) was 0.5 nM; in assay [1] (Gα15/16, FIG. 3C) it was 6.6 nM; at TPαR [2], 8.4 nM; at TPαR [3], 4.3 nM.
